Test results from US20230002334A1, “TRPM8 MODULATORS” (Givaudan SA, priority 2019, published 2023).

These molecules were tested against T1, hTRPM8 (Homo sapiens, UniProt Q7Z2W7) (assay: Assay on TRPM8 modulators: calcium imaging (Fluo-4, Flexstation) in HEK293 cell line stably expressing hTRPM8). Settings: HEK293 cells stably expressing hTRPM8, calcium influx, sigmoidal dose-response fit; read-out: EC50.
T1 construct: expressed in transfected cells
Type: cell-based
Experimental: A HEK293 cell line stably expressing hTRPM8 was generated according to Klein et al., (Chem. Senses 36: 649-658, 2011) and receptor activation was monitored by calcium imaging in a Flexstation. For Ca-imaging assays of TRPM8 channel activation, cells were seeded on day 0 at a density of 12000 cells per well in Dulbecco's modified Eagle medium (DMEM) containing 9% foetal bovine serum in black, clear bottom 96-well plates that had been coated with 0.001% polyethyleneimine (molecular weight=60 000, Acros Organics). On day 2, agonists were evaluated via calcium imaging using Fluo-4. Briefly, growth medium was discarded, and the cells were incubated in the dark for 1 h at 37° C. in 50 μL loading buffer consisting of 2.7 μM Fluo-4 AM (Invitrogen) and […] probenecid (Sigma-Aldrich) in DMEM (without serum). After incubation, the plates were washed five times with 100 μL of assay buffer (in mM: 130 NaCl, 5 KCl, 10 HEPES, 2 CaCl2, and 10 glucose, pH7.4.) and further incubated in the dark at room temperature for 30 min. The cells were then washed five times with 100 μL assay buffer and then calcium influx to serial dilutions of inventive compounds were measured in a Flexstation 3 (Molecular Devices). Receptor activation was initiated following addition of 20 μl of a 10-fold concentrated ligand stock solution, which is also prepared in assay buffer. Fluorescence was continuously monitored for 15 seconds prior to ligand addition and for 105 seconds after ligand addition, for a total of 120 seconds. Maximal receptor activation in relation to solvent control and relative to 31.6 μM menthol is determined. Data from serial dilutions were processed with a KNIME workflow to fit a sigmoidal dose-response curve and to extrapolate EC50 values.

T1 sequence (Q7Z2W7 whole entry): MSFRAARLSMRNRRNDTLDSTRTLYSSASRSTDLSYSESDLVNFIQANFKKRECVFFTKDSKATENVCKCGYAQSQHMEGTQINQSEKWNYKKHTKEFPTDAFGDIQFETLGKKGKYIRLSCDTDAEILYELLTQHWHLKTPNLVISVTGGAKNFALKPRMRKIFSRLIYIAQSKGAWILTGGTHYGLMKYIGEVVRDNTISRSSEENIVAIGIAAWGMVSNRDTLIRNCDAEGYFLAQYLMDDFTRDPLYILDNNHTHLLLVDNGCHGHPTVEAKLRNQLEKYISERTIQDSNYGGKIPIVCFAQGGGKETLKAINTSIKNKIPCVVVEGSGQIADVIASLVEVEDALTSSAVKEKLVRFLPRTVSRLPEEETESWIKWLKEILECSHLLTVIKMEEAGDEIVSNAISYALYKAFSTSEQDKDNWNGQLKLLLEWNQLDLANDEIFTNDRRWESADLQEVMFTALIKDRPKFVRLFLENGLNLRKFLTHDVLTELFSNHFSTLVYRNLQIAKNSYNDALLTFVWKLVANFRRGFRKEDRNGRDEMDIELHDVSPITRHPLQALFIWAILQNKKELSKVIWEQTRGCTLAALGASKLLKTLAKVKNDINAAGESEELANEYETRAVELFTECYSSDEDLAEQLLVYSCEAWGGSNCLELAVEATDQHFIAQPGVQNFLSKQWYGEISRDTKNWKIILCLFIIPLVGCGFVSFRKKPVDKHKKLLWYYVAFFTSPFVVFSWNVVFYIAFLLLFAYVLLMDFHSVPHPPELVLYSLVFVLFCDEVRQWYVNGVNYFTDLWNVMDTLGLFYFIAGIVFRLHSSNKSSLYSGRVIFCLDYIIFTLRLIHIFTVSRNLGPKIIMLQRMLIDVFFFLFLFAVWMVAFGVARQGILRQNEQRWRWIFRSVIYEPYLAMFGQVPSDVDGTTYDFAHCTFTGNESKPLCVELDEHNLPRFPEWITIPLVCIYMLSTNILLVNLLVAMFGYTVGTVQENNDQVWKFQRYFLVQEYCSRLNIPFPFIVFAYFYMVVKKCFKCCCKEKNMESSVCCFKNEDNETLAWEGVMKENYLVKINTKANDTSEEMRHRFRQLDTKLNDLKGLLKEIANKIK

EC50 [nM] | SMILES
300 to 1000 | Cc1cccc(C)c1[C@@]1(C)C[C@@H]2[C@@H]([C@@H](C)C1)N(C)OC2(C)C (racemic) [Compound 76, rac-(3aR,5R,7S,7aR)-5-(2,6-dimethylphenyl)-1,3,3,5,7-pentamethyloctahydrobenzo[c]isoxazole]
300 to 1000 | CCOc1ccccc1[C@@]1(C)C[C@@H]2[C@@H]([C@@H](C)C1)N(C)OC2(C)C (racemic) [Compound 77, rac-(3aR,5R,7S,7aR)-5-(2-ethoxyphenyl)-1,3,3,5,7-pentamethyloctahydrobenzo[c]isoxazole]
50 to 300 | CCc1ccccc1[C@@]1(C)C[C@@H]2[C@@H]([C@@H](C)C1)N(C)OC2(C)C (racemic) [Compound 78, rac-(3aR,5R,7S,7aR)-5-(2-ethylphenyl)-1,3,3,5,7-pentamethyloctahydrobenzo[c]isoxazole]
1000 to 35000 | CCc1ccccc1[C@H]1C[C@@H]2[C@@H]([C@@H](C)C1)N(C)OC2(C)C (racemic) [Compound 79, rac-(3aR,5R,7S,7aR)-5-(2-ethylphenyl)-1,3,3,7-tetramethyloctahydrobenzo[c]isoxazole]
300 to 1000 | CCc1ccccc1[C@H]1C[C@@H]2[C@@H]([C@@H](C)C1)N(C(C)C)OC2(C)C (racemic) [Compound 80, rac-(3aR,5R,7S,7aR)-5-(2-ethylphenyl)-1-isopropyl-3,3,7-trimethyloctahydrobenzo[c]isoxazole]
50 to 300 | C[C@H]1C[C@@](C)(c2ccccc2F)C[C@@H]2[C@@H]1N(C)OC2(C)C (racemic) [Compound 81, rac-(3aR,5R,7S,7aR)-5-(2-fluorophenyl)-1,3,3,5,7-pentamethyloctahydrobenzo[c]isoxazole]
50 to 300 | COc1ccccc1[C@@]1(C)C[C@@H]2[C@@H]([C@@H](C)C1)N(C)OC2(C)C (racemic) [Compound 82, rac-(3aR,5R,7S,7aR)-5-(2-methoxyphenyl)-1,3,3,5,7-pentamethyloctahydrobenzo[c]isoxazole]
50 to 300 | C[C@H]1C[C@@](C)(c2ccc(F)c(F)c2)C[C@@H]2[C@@H]1N(C)OC2(C)C (racemic) [Compound 84, rac-(3aR,5R,7S,7aR)-5-(3,4-difluorophenyl)-1,3,3,5,7-pentamethyloctahydrobenzo[c]isoxazole]
1000 to 35000 | COc1cc(OC)cc([C@@]2(C)C[C@@H]3[C@@H]([C@@H](C)C2)N(C)OC3(C)C)c1 (racemic) [Compound 86, rac-(3aR,5R,7S,7aR)-5-(3,5-dimethoxyphenyl)-1,3,3,5,7-pentamethyloctahydrobenzo[c]isoxazole]
300 to 1000 | Cc1cc(C)cc([C@@]2(C)C[C@@H]3[C@@H]([C@@H](C)C2)N(C)OC3(C)C)c1 (racemic) [Compound 87, rac-(3aR,5R,7S,7aR)-5-(3,5-dimethylphenyl)-1,3,3,5,7-pentamethyloctahydrobenzo[c]isoxazole]
300 to 1000 | Cc1cc(C)cc([C@@]2(C)C[C@@H]3[C@@H]([C@@H](C)C2)N(C(C)C)OC3(C)C)c1 (racemic) [Compound 88, rac-(3aR,5R,7S,7aR)-5-(3,5-dimethylphenyl)-1-isopropyl-3,3,5,7-tetramethyloctahydrobenzo[c]isoxazole]
50 to 300 | Cc1c(Cl)cccc1[C@@]1(C)C[C@@H]2[C@@H]([C@@H](C)C1)N(C)OC2(C)C (racemic) [Compound 89, rac-(3aR,5R,7S,7aR)-5-(3-chloro-2-methylphenyl)-1,3,3,5,7-pentamethyloctahydrobenzo[c]isoxazole]
50 to 300 | Cc1c(Cl)cccc1[C@H]1C[C@@H]2[C@@H]([C@@H](C)C1)N(C(C)C)OC2(C)C (racemic) [Compound 90, rac-(3aR,5R,7S,7aR)-5-(3-chloro-2-methylphenyl)-1-isopropyl-3,3,7-trimethyloctahydrobenzo[c]isoxazole]
300 to 1000 | C[C@H]1C[C@@](C)(c2cc(F)cc(C(F)(F)F)c2)C[C@@H]2[C@@H]1N(C)OC2(C)C (racemic) [Compound 91, rac-(3aR,5R,7S,7aR)-5-(3-fluoro-5-(trifluoromethyl)phenyl)-1,3,3,5,7-pentamethyloctahydrobenzo[c]isoxazole]
50 to 300 | C[C@H]1C[C@@](C)(c2cccc(F)c2)C[C@@H]2[C@@H]1N(C)OC2(C)C (racemic) [Compound 92, rac-(3aR,5R,7S,7aR)-5-(3-fluorophenyl)-1,3,3,5,7-pentamethyloctahydrobenzo[c]isoxazole]
1000 to 35000 | CC(C)c1cccc([C@@]2(C)C[C@@H]3[C@@H]([C@@H](C)C2)N(C)OC3(C)C)c1 (racemic) [Compound 93, rac-(3aR,5R,7S,7aR)-5-(3-isopropylphenyl)-1,3,3,5,7-pentamethyloctahydrobenzo[c]isoxazole]

EC50 [nM] | SMILES
50 to 300 | COc1cccc([C@@]2(C)C[C@@H]3[C@@H]([C@@H](C)C2)N(C)OC3(C)C)c1 (racemic) [Compound 94, rac-(3aR,5R,7S,7aR)-5-(3-methoxyphenyl)-1,3,3,5,7-pentamethyloctahydrobenzo[c]isoxazole]
1000 to 35000 | C[C@H]1C[C@@](C)(c2ccc(C(C)(C)C)cc2)C[C@@H]2[C@@H]1N(C)OC2(C)C (racemic) [Compound 95, rac-(3aR,5R,7S,7aR)-5-(4-(tert-butyl)phenyl)-1,3,3,5,7-pentamethyloctahydrobenzo[c]isoxazole]
1000 to 35000 | C[C@H]1C[C@@H](c2ccc(C(C)(C)C)cc2)C[C@@H]2[C@@H]1N(C)OC2(C)C (racemic) [Compound 96, rac-(3aR,5R,7S,7aR)-5-(4-(tert-butyl)phenyl)-1,3,3,7-tetramethyloctahydrobenzo[c]isoxazole]
1000 to 35000 | CC(C)N1OC(C)(C)[C@@H]2C[C@H](c3ccc(C(C)(C)C)cc3)C[C@H](C)[C@H]21 (racemic) [Compound 97, rac-(3aR,5R,7S,7aR)-5-(4-(tert-butyl)phenyl)-1-isopropyl-3,3,7-trimethyloctahydrobenzo[c]isoxazole]
50 to 300 | Cc1cc(Cl)ccc1[C@H]1C[C@@H]2[C@@H]([C@@H](C)C1)N(C(C)C)OC2(C)C (racemic) [Compound 98, rac-(3aR,5R,7S,7aR)-5-(4-chloro-2-methylphenyl)-1-isopropyl-3,3,7-trimethyloctahydrobenzo[c]isoxazole]
< 50 | COc1cc(F)ccc1[C@@]1(C)C[C@@H]2[C@@H]([C@@H](C)C1)N(C)OC2(C)C (racemic) [Compound 99, rac-(3aR,5R,7S,7aR)-5-(4-fluoro-2-methoxyphenyl)-1,3,3,5,7-pentamethyloctahydrobenzo[c]isoxazole]
< 50 | Cc1cc(F)ccc1[C@@]1(C)C[C@@H]2[C@@H]([C@@H](C)C1)N(C)OC2(C)C (racemic) [Compound 100, rac-(3aR,5R,7S,7aR)-5-(4-fluoro-2-methylphenyl)-1,3,3,5,7-pentamethyloctahydrobenzo[c]isoxazole]
50 to 300 | Cc1cc(F)ccc1[C@H]1C[C@@H]2[C@@H]([C@@H](C)C1)N(C)OC2(C)C (racemic) [Compound 101, rac-(3aR,5R,7S,7aR)-5-(4-fluoro-2-methylphenyl)-1,3,3,7-tetramethyloctahydrobenzo[c]isoxazole]
< 50 | CC(C)N1OC(C)(C)[C@@H]2C[C@](C)(c3ccc(F)cc3)C[C@H](C)[C@H]21 (racemic) [Compound 103, rac-(3aR,5R,7S,7aR)-5-(4-fluorophenyl)-1-isopropyl-3,3,5,7-tetramethyloctahydrobenzo[c]isoxazole]
300 to 1000 | COc1ccc([C@@]2(C)C[C@@H]3[C@@H]([C@@H](C)C2)N(C)OC3(C)C)cc1 (racemic) [Compound 104, rac-(3aR,5R,7S,7aR)-5-(4-methoxyphenyl)-1,3,3,5,7-pentamethyloctahydrobenzo[c]isoxazole]
< 50 | Cc1ccc(Cl)cc1[C@@]1(C)C[C@@H]2[C@@H]([C@@H](C)C1)N(C)OC2(C)C (racemic) [Compound 105, rac-(3aR,5R,7S,7aR)-5-(5-chloro-2-methylphenyl)-1,3,3,5,7-pentamethyloctahydrobenzo[c]isoxazole]
300 to 1000 | Cc1ccc(Cl)cc1[C@H]1C[C@@H]2[C@@H]([C@@H](C)C1)N(C(C)C)OC2(C)C (racemic) [Compound 106, rac-(3aR,5R,7S,7aR)-5-(5-chloro-2-methylphenyl)-1-isopropyl-3,3,7-trimethyloctahydrobenzo[c]isoxazole]
< 50 | Cc1ccc(F)cc1[C@@]1(C)C[C@@H]2[C@@H]([C@@H](C)C1)N(C)OC2(C)C (racemic) [Compound 107, rac-(3aR,5R,7S,7aR)-5-(5-fluoro-2-methylphenyl)-1,3,3,5,7-pentamethyloctahydrobenzo[c]isoxazole]
300 to 1000 | Cc1ccc(F)cc1[C@H]1C[C@@H]2[C@@H]([C@@H](C)C1)N(C)OC2(C)C (racemic) [Compound 108, rac-(3aR,5R,7S,7aR)-5-(5-fluoro-2-methylphenyl)-1,3,3,7-tetramethyloctahydrobenzo[c]isoxazole]
300 to 1000 | C[C@H]1C[C@@](C)(c2ccc3c(c2)OCO3)C[C@@H]2[C@@H]1N(C)OC2(C)C (racemic) [Compound 109, rac-(3aR,5R,7S,7aR)-5-(benzo[d][1,3]dioxol-5-yl)-1,3,3,5,7-pentamethyloctahydrobenzo[c]isoxazole]
